In patent US4745100A, “Stimulation of tear secretion” (Eye Research Institute of Retina Foundation, priority 1986, dated 1988):
“Also recorded” adds a separate entry of the source. No end group written: not given here.

Experiments:
[1] = additives needed; cited from earlier work
rabbits with dry eyes = assay: Tear film osmolality in dry eye rabbit after topical test drop; type: in vivo; settings: 10 μl topical drop
Protocol: In vivo examples of the invention were conducted on rabbits with dry eyes. The dry eye disorder is created by surgically closing the duct that carries fluid from the main lacrimal gland to the tear film and surgically removing the nictitans and harderian glands. This leaves intact only the accessory glands that lie on the ocular surface. These rabbits develop increased tear film osmolality soon after the operation, a finding that is understood to be due to decreased tear production, and that is characteristic of dry eye. It is recognized that results of ophthalmologic tests using rabbits has close correlation with humans, and therefore the results carry over to humans.
The effect of topically applied isotonic buffer solution with and without VIP on tear film osmolality was studied in the dry eye rabbit. All test drops were ten μl in volume and were applied in each case six minutes after the instillation of proparacaine, which anesthetizes the surface of the eye and prevents reflex tearing. Tear samples were taken with a micropipette system, in the manner described in the article entitled "Osmolarity of Tear Microvolumes in Keratoconjunctivitis Sicca", by Gilbard et al, Arch Ophthalmol 96:677, 1978. Osmolality was measured by freezing-point depression.
The following protocol was used for each drop tested. Six minutes prior to instillation of the test drop proparacaine was instilled. At zero time a tear sample was taken for measurement of osmolality. At one minute the test drop was instilled. At six and at sixteen minutes, tear samples were taken for osmolality measurements. The procedure for instilling each test drop is that the drop of buffered solution was first instilled in the dry eye and measurements were taken followed by a drop of buffered solution containing VIP. The following test drops were instilled: (1) buffer solution, (2) buffer solution containing 2×10^-8 M VIP, (3) buffer solution, (4) buffer solution containing 2×10^-7 M VIP, (5) buffer solution, (6) buffer solution containing 2×10^-6 M VIP. The results are shown in FIGS. 1A, 1B, and 1C and FIGS. 2A, 2B, and 2C, where FIGS. 1 and 2 each represent the results obtained from the same rabbit.
In separate experiments, the effect of topically applied isotonic buffer solution with or without glucagon or secretin on tear film osmolality was studied in dry eye rabbits. All test drops were ten microliters in volume. Tear osmolality was measured one minute prior to drop instillation and five and fifteen minutes after drop instillation. A drop of buffered solution was first instilled in the dry eye and measurements were taken followed by a drop of buffered solution containing glucagon or secretin, depending on the test.

[2] = test system: main (orbital) lacrimal gland; settings: administered intravenously to rabbits; cited from earlier work
dry eye rabbits = assay: Elimination of tracer Tc99m (sodium pertechnetate) from the tear film of dry eye rabbits; type: in vivo, rabbit; settings: VIP 2×10^-6 M in 10 μl radioactive buffer
Protocol: In a separate example, dry eye rabbits were studied by examining the rate of elimination of a tracer substance technectium, Tc^99m, as sodium pertechnetate from the tear film. Essentially equivalent counts of Tc^99m were placed in ten microliters of, in some instances, a buffer solution to serve as a control, and in other instances, a buffer solution containing 2×10^-6 M VIP. Radioactivity present in the tear film was measured over contiguous fifteen second periods for thirty minutes with a gamma camera, and the measurements stored on a computer. The following protocol was used: Rabbits were anesthetized with IM rompun and ketamine. At zero time proparacaine was applied. At five minutes, the radioactive buffer with VIP was instilled in the eye. Radioactivity present in the tear film was then recorded as described. After thirty minutes, proparacaine was again instilled in the eye and the procedure repeated with radioactive buffer alone. […] This increased rate of tracer washout is understood to be indicative of increased tear secretion. In a second similar experiment, the effect of VIP was first tested, and then radioactive buffer alone, and then the effect of VIP again.

[3] = test system: rat exorbital lacrimal gland; settings: cited from earlier work
lacrimal gland = settings: administered intra-arterially; cited from earlier work

For glucagon, the solubility [1] is listed as “requires the additives glycerin and lactose to render it soluble” and the “effect on tear film osmolality versus buffer solution alone” value (rabbits with dry eyes; glucagon 2×10^-6, 2×10^-5, 2×10^-4 M, 5 and 15 min after drop, FIG. 6) is listed as “lowers tear film osmolality more effectively than buffer solution alone; also recorded: dose-dependent decrease in tear film osmolality”.

With secretin the “effect on tear film osmolality versus buffer solution alone” value (rabbits with dry eyes; secretin 2×10^-7, 2×10^-6, 2×10^-5 M, 5 and 15 min after drop, FIG. 7) was “lowers tear film osmolality more effectively than buffer solution alone; also recorded: dose-dependent decrease in tear film osmolality”.

For “vasoactive intestinal peptide (HSDAVFTDNYTRLRKQMAVKKYLNSILN; ends and bridges not checked; UniProt P01282 125-152, looked up) [VIP]”, the “main (orbital) lacrimal gland secretion” value [2] is listed as “can stimulate main (orbital) lacrimal gland secretion”, the “slope of the elimination curve of Tc99m from tear film, first 15 minutes” value (dry eye rabbits; topical, dry eye rabbit, placebo -0.82, FIG. 4) is listed as -1.65 and the “slope of the elimination curves versus radioactive buffer alone, second experiment” value (dry eye rabbits; two VIP tests, FIG. 5) is listed as “substantially steeper than for radioactive buffer alone”. The “effect on tear film osmolality versus placebo, same experiment as CCK” value (rabbits with dry eyes; VIP 2×10^-6 M, FIGS. 3A, 3B) was “decreased tear film osmolality more effectively than a placebo in one of two trials”, the “effect on tear film osmolality versus buffer solution alone” value (rabbits with dry eyes; VIP 2×10^-8, 2×10^-7, 2×10^-6 M, samples at 6 and 16 min, FIGS. 1 and 2) was “lowers the tear film osmolality more effectively than buffer solution alone; also recorded: dose-dependent decrease in tear film osmolality” and the “protein secretion in vitro” value [3] was “stimulate protein secretion in vitro”. The lacrimal gland secretion (lacrimal gland) was “stimulate lacrimal gland secretion”.

B1: Cholecystokinin (peptide, UniProt P06307 21-115, looked up)
Cholecystokinin: QPVPPADPAGSGLQRAEEAPRRQLRVSQRTDGESRAHLGALLARYIQQARKAPSGRMSIVKNLQNLDPSHRISDRDYMGWMDFGRRSAEEYEYPS
modifications: Cholecystokinin
notes: gastrointestinal hormone tested topically as comparison
In the case of B1, the “effect on tear osmolality versus placebo” value (rabbits with dry eyes; CCK 2×10^-4 M, FIG. 3B) is listed as “did not lower tear osmolality more effectively than a placebo” and the lacrimal gland secretion (lacrimal gland) is listed as “stimulate lacrimal gland secretion”.
